Experimental data reported in patent publication US20230085263A1, “TASTEFUL NATURAL SWEETENER AND FLAVOR” (EPC Natural Products Co., Ltd., priority 2018, published 2023).
Entries after “also recorded” stand apart in the source; their conditions may differ.

Key:
[1] = Kinetics of reaction in dependence of pH-conditions: degradation of Phe and Reb-A, Gluc, Xyl, Suc (HPLC/MS); conditions: KH2PO4 Buffer, 1.0 h, 120° C.; for Degradation: reaction of Phe and Gluc; for % formation from degraded Phe: reaction of Phe and Suc, n.d. = not detected
Method: All samples were analyzed by HPLC/MS using following conditions.
The mobile phase consisted of (A) 0.1% HCOOH (v/v) and (B) AcCN. A gradient of 5% (B) to 15% (B) was applied between 0 min to 15 min. Between 15 and 20 min (B) was increased to 45% which was kept for 5 min. Detection consisted of UV/VIS-DAD (205 nm, 254 nm, 450 nm) coupled to ESI-MS (pos mode, 300° C., TIC from m/z 120-1200, fragmentor 100).
Quantitative Evaluation was Performed Using External Standardization.

[2] = Sensory evaluation of combinations of NHDC, EPCalin (Thaumatin) and Combination of GSGs and SGs in water (Example 234); assay type: in vivo; conditions: 4.5 ppm Thaumatin and/or 50 ppm GSGs and SGs
Method: 4.5 ppm Thaumatin (equivalent to 10 ppm EPCalin) were dissolved in water. Increasing amounts of NHDC (1-5 ppm) were added to the solution and the sensory properties were evaluated.
50 ppm (GSGs and SGs) were dissolved in water. Increasing amounts of NHDC (1-5 ppm) were added to the solution and the sensory properties were evaluated.
50 ppm (GSGs and SGs) and 4.5 ppm Thaumatin (equivalent to 10 ppm EPCalin) were dissolved in water. Increasing amounts of NHDC (1-5 ppm) were added to the solution and the sensory properties were evaluated.
Sweetness intensity was rated on 5-point scale

[3] = Stevia-derived MRPs with NHDC and Thaumatin in Red Bull sugarfree (Example 240); assay type: in vivo; conditions: 150 μl of sample in 100 ml Redbull sugar free
Method: Stevia-derived MRPs (Reference): 0.67 g xylose, 0.33 g phenylalanine and 4 g Stevia extract TSG95 were dissolved in 2.5 g deionized water. The solution was heated at about 100° C. for 2 h. After the reaction was complete, the slurry was diluted with 25 g water.
(§1) Stevia-derived MRPs by Combination of GSGs and SGs: 0.67 g xylose, 0.33 g phenylalanine, 4 g SGA (Combination of GSGs and SGs) were dissolved in 2.5 g deionized water. The solution was heated at about 100° C. for 2 h. After the reaction was complete, the slurry was diluted with 25 g water.
as §1, with “SGs and NHDC:” for “SGs:”, “SGs) and 3 ppm (=82.5 μg) NHDC” for “SGs)”, “in” for “in 2.5 g deionized”
as §1, with “by SGA (Combination” for “by Combination”, “and SGs), NHDC and Thaumatin:” for “and SGs:”, “and SGs), 3 ppm (=82.5 μg) NHDC and 5 ppm (=302.5 μg EPCalin 45%) Thaumatin” for “and SGs)”
150 μl of the each sample was added to 100 ml Redbull sugar free and mixed. The taste profiles of the samples were compared. […]

[4] = Assay to test reducing power (iron-III reduction test for anti-oxidant potential); assay type: physicochemical; conditions: combinations of amino acids and Reb-A, 100° C., 0, 2.5 or 5.0 hours, diluted 1:10
Method: Assay to Test Reducing Power
0.2 M Sodium phosphate buffer, pH=6.6; 500 mg Potassium ferric(III)cyanide/50 mL water, 10% Trichloroacetic acid; 20 mg Iron-III-Chloride/20 mL water; Calibration samples were prepared with Ascorbic acid in a concentration of 0-100 μg/mL 0.2 M Sodium phosphate buffer, pH=6.6 (freshly prepared); as negative control sample water was used.
Samples in aqueous solution were used as such or diluted in 0.2 M Sodium phosphate buffer, pH=6.6.
A 1 mL sample (or calibration standard) was mixed with 1 mL 0.2 M Sodium phosphate buffer, pH=6.6 and 1 mL Potassium ferricyanide solution. The sample was incubated and protected from light at 50° C. for 20 min.
To the solution was added 1 mL Trichloroacetic acid with thorough mixing.
A 1 mL of the mixture was diluted with 1 mL H2O and 0.2 mL Iron-Ill-chloride and reacted for 10 minutes; The absorbance was then determined at 700 nm against H2O.
10 mM of amino acid and/or 10 mM sugar were dissolved in 10 ml 0.1 mM KH2PO4-buffer, pH=7.8. […]
1 ml sample (or calibration standard) solution) was mixed with 0.2 M Sodium phosphate buffer (pH=6.6) and 1 ml Potassium ferric(III)cyanide solution in water (1% w/v) and incubated at 50° C. for 20 minutes. […] The sample was incubated for 10 minutes and absorbance read at 700 nm against a water control. […]
Quantification was performed by linear regression of calibration test results for ascorbic acid. […]

[5] = DPPH radical-scavenging activity (DPPH test for anti-oxidant potential); assay type: physicochemical; conditions: combinations of amino acids and Reb-A, 100° C., 0, 2.5 or 5.0 hours, diluted 1:10
Method: Assay to Rest DPPH Radical-Scavenging Activity
1 mg 1,1-Diphenyl-2-picrylhydrazyl radical (DPPH)/ml ethanol, dilution to assay concentration were prepared in ethanol (40 μg/mL); Calibration samples were prepared with Ascorbic acid in a concentration of 0-10 μg/mL; as a negative control sample, water was used.
Samples in aqueous solution were used as such or diluted with water.
A 0.1 ml sample (or calibration standard) was mixed with 3.9 ml solution of DPPH° (100 μMolar) and reacted while protected from light at room temperature for 30 min. Absorbance was determined at 517 nm against ethanol.
10 mM of amino acid and/or 10 mM sugar were dissolved in 10 ml 0.1 mM KH2PO4-buffer, pH=7.8.
The samples were kept at 100° C. in sealed glass vials (Pyrex 15 ml with screw caps) for 0 (before reaction), 2.5 or 5.0 hours. Thereafter the samples were transferred to an ice water bath and cooled down to room temperature. These samples were diluted 1:10 and used for the test assay for anti-oxidant potential. […]
0.2 ml sample (or calibration standard) solution was mixed with 0.2 ml solution of DPPH° (0.1 mM) and 3.6 ml methanol. […] After 3 minutes the absorbance at 517 nm was obtained against ethanol. Quantification was performed by linear regression of calibration test results for ascorbic acid. […]

[6] = Degree of kokumi with thickeners carrageenan, gellan gum, Tamarind gum (Examples 168-170); parameters: species or system people; conditions: in vivo
Method: Carrageenan was added to pure water to prepare several carrageenan solutions with a concentration gradient as standard solutions for judging the degree of kokumi of the carrageenan solutions. […] Method: For evaluation of the degree of kokumi, the sample solutions (described above) were tested by a panel of four people. […] The tester was allowed to re-taste, and then made judgment. […] Gellan gum was added to pure water to prepare several gellan gum solutions with a concentration gradient as standard solutions for judging the degree of kokumi of the gellan gum solutions. […] Method: For evaluation of the degree of kokumi, the sample solutions (described above) were tested by a panel of four people. […] The tester was allowed to re-taste, and then made judgment. […] Tamarind gum was added to pure water to prepare several Tamarind gum solutions with a concentration gradient as standard solutions for judging the degree of kokumi of the Tamarind gum solutions. […] Method: For evaluation of the degree of kokumi, the sample solutions (described above) were tested by a panel of four people. […] The tester was allowed to re-taste, and then made judgment.

Which results are given for `NC(Cc1ccccc1)C(=O)O` (single isomer, unassigned) [Phe]?
Degradation ([1]; pH = 5.5): 2.26; Degradation ([1]; pH = 7.0): 2.18; Degradation ([1]; pH = 8.5): 4.24

For `COc1ccc(CCC(=O)c2c(O)cc(O[C@@H]3O[C@H](CO)[C@@H](O)[C@H](O)[C@H]3O[C@@H]3O[C@@H](C)[C@H](O)[C@@H](O)[C@H]3O)cc2O)cc1O` [NHDC, Neohesperidin dihydrochalcone], which “sensory properties (sweetness, onset, lingering, mouth-feel)” value [2] is on record?
Its value is “long lasting lingering; also recorded: boosts the lingering”.

What about the “taste profile in sugarfree beverage” value [3] of the same compound?
Its value is “improved the mouth-feel and harmony of taste impression yielding a substantially improved taste profile”.

For `C=C1C[C@@]23CC[C@H]4[C@@](C)(CCC[C@@]4(C)C(=O)O[C@@H]4O[C@H](CO)[C@@H](O)[C@H](O)[C@H]4O)[C@@H]2CC[C@]1(O[C@@H]1O[C@H](CO)[C@@H](O)[C@H](O[C@@H]2O[C@H](CO)[C@@H](O)[C@H](O)[C@H]2O)[C@H]1O[C@@H]1O[C@H](CO)[C@@H](O)[C@H](O)[C@H]1O)C3` [Reb-A, Rebaudioside A], which “anti-oxidant properties (active iron-III reduction)” value [4] is on record?
The value was “substantial anti-oxidant properties”.

What about the “anti-oxidant properties (radical scavenging)” value [5] of the same compound?
Its value is “substantial anti-oxidant properties”.

With gellan gum as the compound, how does the “concentration above which taste like starch paste can be clearly felt” value [6] read?
The value was “exceeds 1400 ppm”.

With `OC[C@H]1OC(O)[C@H](O)[C@@H](O)[C@@H]1O` (stereo partly shown) [Glu] as the compound, how does the Degradation ([1]; pH = 5.5) read?
Its Degradation is 3.65.

And the Degradation ([1]; pH = 7.0)?
Its Degradation is 4.6.

And the Degradation ([1]; pH = 8.5)?
The Degradation was 7.62.

For Tamarind gum, which “concentration above which taste like starch paste can be clearly felt” value [6] is on record?
The value was “exceeds 1400 ppm”.

What does the source list for `O=C(O)[C@H](Cc1ccccc1)NCC(=O)[C@@H](O)[C@H](O)[C@H](O)CO` [MRI (Phe-Glu)]?
% formation from degraded Phe ([1]; pH = 5.5): <0.10%; % formation from degraded Phe ([1]; pH = 7.0): 0.54%; % formation from degraded Phe ([1]; pH = 8.5): 0.84%

Which “concentration above which taste like starch paste can be clearly felt” value [6] does the source give for carrageenan here?
Its value is “exceeds 1000 ppm”.
